Measured values reported in PubChem BioAssay (NCI).
Several values for one entry are separate records, joined by “and”; a condition that tells them apart may be missing. Equal entries are not always repeated.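 In this assay, cells in 96-well plates receive the compound at five concentrations for 48 hours. Endpoints are linearly interpolated between the surrounding concentrations. GI50 is the concentration that inhibits growth by half. At the TGI there is no net growth.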

How the values were obtained:
Experiment in all cases: NCI tumour cell line growth inhibition, 48 h
SNB-78 CNS = tested on: SNB-78 CNS
DLD-1 colon = tested on: DLD-1 colon
XF 498 CNS = tested on: XF 498 CNS
LXFL 529 NSCLC = tested on: LXFL 529 NSCLC
HOP-18 NSCLC = tested on: HOP-18 NSCLC
RXF-631 renal = tested on: RXF-631 renal
SN12K1 renal = tested on: SN12K1 renal
P388/ADR leukemia = tested on: P388/ADR leukemia
MDA-N = tested on: MDA-N
T-47D breast = tested on: T-47D breast
M19-MEL melanoma = tested on: M19-MEL melanoma

Structure (SMILES): CCCCCCCCCCCCCCCc1nc(SCC(=O)O)n[nH]1
- TGI (SNB-78 CNS): > 100 µM
- TGI (DLD-1 colon): 56.1 µM
- TGI (XF 498 CNS): > 100 µM
- TGI (LXFL 529 NSCLC): 66.4 µM
- TGI (HOP-18 NSCLC): > 100 µM
- TGI (RXF-631 renal): > 100 µM

Structure (SMILES): COc1nc(C(Cl)(Cl)Cl)c(Cl)c(OC)c1Cl
- TGI (SNB-78 CNS): 72.3 µM
- GI50 (DLD-1 colon): 31.7 µM
- TGI (DLD-1 colon): 79.8 µM
- TGI (XF 498 CNS): 54.5 µM
- TGI (SN12K1 renal): 62.4 µM
- TGI (HOP-18 NSCLC): 70.1 µM
- TGI (P388/ADR leukemia): 85.9 µM
- TGI (MDA-N): 57.5 µM
- TGI (T-47D breast): 77.6 µM
- TGI (RXF-631 renal): 49.4 µM
- GI50 (M19-MEL melanoma): 25.3 µM
- TGI (M19-MEL melanoma): 58.5 µM and 67 µM

Structure (SMILES): Cn1c(=O)c2nc3sc4ccccc4c(=N)n3c2n(C)c1=O
- TGI (SNB-78 CNS): > 100 µM
- TGI (DLD-1 colon): > 100 µM
- TGI (XF 498 CNS): > 100 µM
- TGI (LXFL 529 NSCLC): > 100 µM
- TGI (HOP-18 NSCLC): > 100 µM
- TGI (RXF-631 renal): > 100 µM
- TGI (M19-MEL melanoma): > 100 µM

Structure (SMILES): CC12CCC(C)(c3cc(O)c(O)cc31)c1cc(O)c(O)cc12
- TGI (SNB-78 CNS): 39.2 µM
- TGI (DLD-1 colon): 45.7 µM
- TGI (XF 498 CNS): 34 µM
- TGI (LXFL 529 NSCLC): 22.2 µM
- TGI (RXF-631 renal): 55.6 µM
- TGI (M19-MEL melanoma): 31.6 µM

Structure (SMILES): COc1cc(C2C(C(=O)Nc3ccccc3C)=C(C)NC(C)=C2C(=O)Nc2ccccc2C)ccc1O
- TGI (SNB-78 CNS): > 100 µM
- TGI (DLD-1 colon): > 100 µM
- TGI (XF 498 CNS): > 100 µM
- TGI (LXFL 529 NSCLC): > 100 µM
- TGI (HOP-18 NSCLC): > 100 µM
- TGI (RXF-631 renal): > 100 µM
- TGI (M19-MEL melanoma): > 100 µM

Structure (SMILES): C[C@]12CC[C@H](O)CC1CCC[C@@H]2O (stereo not given in full)
- TGI (SNB-78 CNS): > 100 µM
- TGI (DLD-1 colon): > 100 µM
- TGI (XF 498 CNS): > 100 µM
- TGI (LXFL 529 NSCLC): > 100 µM
- TGI (RXF-631 renal): > 100 µM

Structure (SMILES): CCN(CC)[C@@H]1c2cc3c(cc2C(c2cc(OC)c(O)c(OC)c2)C2C(=O)CO[C@@H]21)OCO3 (stereo not given in full)
- TGI (DLD-1 colon): > 100 µM
- TGI (XF 498 CNS): > 100 µM
- TGI (LXFL 529 NSCLC): > 100 µM
- TGI (RXF-631 renal): > 100 µM
- TGI (M19-MEL melanoma): > 100 µM

Structure (SMILES): O=c1cc(/C=C/c2ccccc2)c2ccc(O/C(=C\c3ccccc3)c3nc4ccccc4c(=O)o3)cc2o1
- TGI (SNB-78 CNS): 70.8 µM
- TGI (DLD-1 colon): > 100 µM
- TGI (XF 498 CNS): 70.5 µM
- TGI (LXFL 529 NSCLC): 63.9 µM
- TGI (RXF-631 renal): > 100 µM
- TGI (M19-MEL melanoma): 91 µM

Structure (SMILES): Cn1c(=O)ccc2cc(C(=O)c3ccccc3)ccc21
- TGI (DLD-1 colon): > 100 µM
- TGI (XF 498 CNS): > 100 µM
- TGI (LXFL 529 NSCLC): > 100 µM
- TGI (HOP-18 NSCLC): > 100 µM
- TGI (RXF-631 renal): > 100 µM
- TGI (M19-MEL melanoma): > 100 µM

Structure (SMILES): N[C@@H](Cc1ccc(N(CCCl)CCCl)cc1)C(=O)O
- GI50 (SNB-78 CNS): 25.6 µM
- TGI (SNB-78 CNS): 83.7 µM and 205 µM
- GI50 (DLD-1 colon): 24.5 µM
- TGI (DLD-1 colon): > 92 µM and 193 µM
- GI50 (XF 498 CNS): 20.9 µM and 22 µM
- TGI (XF 498 CNS): 49.3 µM and 66.3 µM
- GI50 (SN12K1 renal): 11.8 µM
- TGI (SN12K1 renal): 60.5 µM and 102 µM
- TGI (LXFL 529 NSCLC): 110 µM
- GI50 (HOP-18 NSCLC): 23.7 µM and 55.1 µM
- TGI (HOP-18 NSCLC): 64.5 µM and 158 µM
- GI50 (P388/ADR leukemia): 2.59 µM
- TGI (P388/ADR leukemia): 37.7 µM and 76.3 µM
- TGI (MDA-N): 126 µM
- GI50 (T-47D breast): 34.3 µM
- TGI (T-47D breast): > 100 µM and 116 µM
- GI50 (M19-MEL melanoma): 15.9 µM
- TGI (M19-MEL melanoma): 45.3 µM and 102 µM

Structure (SMILES): CC(=O)c1ccc(-c2ccc(C(C)=O)s2)s1
- TGI (SNB-78 CNS): > 100 µM
- TGI (DLD-1 colon): > 100 µM
- TGI (XF 498 CNS): > 100 µM
- TGI (LXFL 529 NSCLC): > 100 µM
- TGI (HOP-18 NSCLC): > 100 µM
- TGI (RXF-631 renal): > 100 µM
- TGI (M19-MEL melanoma): > 100 µM

Structure (SMILES): COC(=O)C1=CCS(=O)(=O)C1
- TGI (SNB-78 CNS): > 100 µM
- TGI (DLD-1 colon): > 100 µM
- TGI (XF 498 CNS): > 100 µM
- TGI (LXFL 529 NSCLC): > 100 µM
- TGI (HOP-18 NSCLC): > 100 µM
- TGI (RXF-631 renal): > 100 µM
- TGI (M19-MEL melanoma): > 100 µM

Structure (SMILES): COc1ccc(/C=C\c2cc(OC)c(OC(C)=O)c(OC)c2)cc1
- TGI (SNB-78 CNS): 73.9 µM
- TGI (DLD-1 colon): > 100 µM
- TGI (XF 498 CNS): > 100 µM
- TGI (LXFL 529 NSCLC): > 100 µM
- TGI (RXF-631 renal): > 100 µM
- TGI (M19-MEL melanoma): > 100 µM

Structure (SMILES): OCC1C2C=CC(O2)[C@H]1CO (stereo not given in full)
- TGI (SNB-78 CNS): > 100 µM
- TGI (DLD-1 colon): > 100 µM
- TGI (LXFL 529 NSCLC): > 100 µM
- TGI (HOP-18 NSCLC): > 100 µM
- TGI (RXF-631 renal): > 100 µM
- TGI (M19-MEL melanoma): > 100 µM

Structure (SMILES): O=C1CCC(=O)C12CCc1ccccc12
- TGI (DLD-1 colon): > 100 µM
- TGI (XF 498 CNS): > 100 µM
- TGI (LXFL 529 NSCLC): > 100 µM
- TGI (HOP-18 NSCLC): > 100 µM
- TGI (RXF-631 renal): > 100 µM
- TGI (M19-MEL melanoma): > 100 µM
